In patent US20060235046A1, “Use of an epidermal growth factor receptor kinase inhibitor (EGFR) in gefitinib resistant patients” (Wyeth, priority 2005, published 2006):

How the values were obtained:
[1] = tested on: non-small cell lung cancer (NSCLC); test: Report on 2 patients with non-small cell lung cancer (NSCLC) who received EKB-569 after gefitinib and recurrence; format: in vivo, human; conditions: two patients (Exon 19 del E746-A750, 25 mg/day for 9 months; Exon 21 L858R, 35 mg/day for 4 months) after treatment with gefitinib and recurrence of NSCLC
Experimental: Report on 2 Patients with Non-Small Cell Lung Cancer (NSCLC) Who Received EKB-569.
A person with a smoking history BI 720 […] having adenocarcinoma and cT0NOM1 (multiple pulmonary metastasis). Exon 19 deletion E746-A750 is identified. Herception test score was 0+ and EGFR score 2+. The patient was given 25 mg/day EKB-569 for 9 months.
A person with a smoking history of BI 30 (10×3 years) having adenocarcinoma performance status 1, cT0N3M1 (pulmonary, brain and bone). Exon 21 point mutation L858R. HercepTest score +, EGFR score 3+, EKB-569 35 mg/day for 4 months.
Phase 1 dose-escalation study of EKB-569 was completed in Japanese patients with advanced-stage malignancies known to overexpress EGFR.

NSCLC = conditions: in some cases; re-treatment when NSCLC recurs in patients treated with gefitinib; cited from earlier work

Row | Structure (SMILES) | clinical effectiveness in NSCLC patients [1] | effectiveness of re-treatment in recurrent NSCLC (NSCLC)
1 | CCOc1cc2ncc(C#N)c(Nc3ccc(F)c(Cl)c3)c2cc1NC(=O)C=CCN(C)C [EKB-569, 4-dimethylamino-but-2-enoic acid [4-(3-chloro-4-fluoro-phenylamino)-3-cyano-7-ethoxy-quinolin-6-yl]-amide] | effective | 
2 | COc1cc2ncnc(Nc3ccc(F)c(Cl)c3)c2cc1OCCCN1CCOCC1 [gefitinib] |  | effective
